Assay results from US20230127944A1, “BROAD-SPECTRUM CARBAPENEMS” (priority 2019, published 2023).

Key:
[1] = system: Methicillin Resistant S. aureus (MRSA) clinical isolates; assay: expanded MIC profiling, MRSA clinical isolates; format: cell-based; details: Staphylococcus aureus
Procedure: (§1) To evaluate the activity of selected example compounds against clinical isolates of target species, standard cell-based broth microdilution MIC assays were employed. A panel of 20 clinical isolates of P. aeruginosa and 20 clinical isolates of Methicillin Resistant S. aureus (MRSA) from Lankenau Medical Center (Wynnewood, Pa.) were used. In the set of P. aeruginosa isolates, the compounds were also tested in combination with a β-lactamase inhibitor (taniborbactam), to evaluate the potential benefit of inhibiting β-lactamase enzymes. The assay was conducted in Cation Adjusted Mueller Hinton Broth (CAMHB, BD #212322, BD Diagnostic Systems, Sparks, Md.). Bacteria strains were grown for 3-5 hours in CAMHB. Compounds were added to a microtiter plate in 2-fold serial dilutions in CAMHB. For plates receiving β-lactamase inhibitor, taniborbactam was added to obtain a final fixed concentration of 4 μg/mL. Once the test articles were added, the plates were inoculated according to CLSI broth microdilution method. After inoculation, the plates were incubated for 16-20 hours at 37° C. then the Minimal Inhibitory Concentration (MIC) of the test compound is determined visually. Values for concentration required to inhibit growth of […] (MIC50) and 90% (MIC90) of isolates were determined.

[2] = system: P. aeruginosa clinical isolates; assay: expanded MIC profiling, P. aeruginosa clinical isolates; format: cell-based; details: Pseudomonas aeruginosa
Procedure: as §1

[3] = panel of S. aureus (MRSA) isolates of Table 5
[4] = panel of 20 P. aeruginosa clinical isolates

With `C[C@@H](O)[C@H]1C(=O)N2C(C(=O)O)=C(S[C@@H]3CN[C@H](C(=O)N(C)C)C3)[C@H](C)[C@H]12` [Meropenem, reference compound] the MIC ([1]; ATCC 33591 / MRSA, S. aureus ATCC-33591) was 32 µg/mL, the MIC ([1]; MRSA, S. aureus clinical isolate LH-SA3) was 4 µg/mL and the MIC ([1]; MRSA, S. aureus clinical isolate LH-SA9) was 4 µg/mL. For the same molecule, the MIC ([1]; MRSA, S. aureus clinical isolate LH-SA23) was 4 µg/mL, the MIC ([1]; MRSA, S. aureus clinical isolate LH-SA24) was 4 µg/mL and the MIC ([1]; MRSA, S. aureus clinical isolate LH-SA26) was 4 µg/mL. It also gave an MIC ([1]; MRSA, S. aureus clinical isolate LH-SA29) of 16 µg/mL, an MIC ([1]; MRSA, S. aureus clinical isolate LH-SA33) of 4 µg/mL and an MIC ([1]; MRSA, S. aureus clinical isolate LH-SA34) of 8 µg/mL. For the same molecule, the MIC ([1]; MRSA, S. aureus clinical isolate LH-SA37) was 4 µg/mL, the MIC ([1]; MRSA, S. aureus clinical isolate LH-SA38) was 32 µg/mL and the MIC ([1]; MRSA, S. aureus clinical isolate LH-SA39) was 4 µg/mL. The MIC ([1]; MRSA, S. aureus clinical isolate LH-SA40) was 4 µg/mL, the MIC ([1]; MRSA, S. aureus clinical isolate LH-SA41) was 4 µg/mL and the MIC ([1]; MRSA, S. aureus clinical isolate LH-SA42) was 8 µg/mL. The MIC ([1]; MRSA, S. aureus clinical isolate LH-SA44) was 8 µg/mL, the MIC ([1]; MRSA, S. aureus clinical isolate LH-SA45) was 16 µg/mL and the MIC ([1]; MRSA, S. aureus clinical isolate LH-SA48) was 4 µg/mL. It also gave an MIC ([1]; MRSA, S. aureus clinical isolate LH-SA49) of 4 µg/mL, an MIC ([1]; MRSA, S. aureus clinical isolate LH-SA50) of 4 µg/mL and an MIC50 [1, 3] of 4 µg/mL. The MIC90 [1, 3] was 16 µg/mL, the MIC ([2]; P. aeruginosa clinical isolate Lankenau 11) was 1 µg/mL and the MIC ([2]; P. aeruginosa clinical isolate Lankenau 12) was 0.5 µg/mL. It also gave an MIC ([2]; P. aeruginosa clinical isolate Lankenau 13) of 1 µg/mL, an MIC ([2]; P. aeruginosa clinical isolate Lankenau 14) of 0.5 µg/mL and an MIC ([2]; P. aeruginosa clinical isolate Lankenau 15) of 1 µg/mL. It also gave an MIC ([2]; P. aeruginosa clinical isolate Lankenau 16) of 0.5 µg/mL, an MIC ([2]; P. aeruginosa clinical isolate Lankenau 17) of 1 µg/mL and an MIC ([2]; P. aeruginosa clinical isolate Lankenau 18) of 0.5 µg/mL. For the same molecule, the MIC ([2]; P. aeruginosa clinical isolate Lankenau 19) was 1 µg/mL, the MIC ([2]; P. aeruginosa clinical isolate Lankenau 20) was 0.5 µg/mL and the MIC ([2]; P. aeruginosa clinical isolate Lankenau 21) was 1 µg/mL. For the same molecule, the MIC ([2]; P. aeruginosa clinical isolate Lankenau 22) was 0.5 µg/mL, the MIC ([2]; P. aeruginosa clinical isolate Lankenau 23) was 0.5 µg/mL and the MIC ([2]; P. aeruginosa clinical isolate Lankenau 24) was 4 µg/mL. The MIC ([2]; P. aeruginosa clinical isolate Lankenau 25) was 0.5 µg/mL, the MIC ([2]; P. aeruginosa clinical isolate Lankenau 26) was less than 0.25 µg/mL and the MIC ([2]; P. aeruginosa clinical isolate Lankenau 27) was 0.5 µg/mL. For the same molecule, the MIC ([2]; P. aeruginosa clinical isolate Lankenau 28) was 0.5 µg/mL, the MIC ([2]; P. aeruginosa clinical isolate Lankenau 29) was 0.5 µg/mL and the MIC ([2]; P. aeruginosa clinical isolate Lankenau 30) was 0.5 µg/mL. It also gave an MIC50 [2, 4] of 0.5 µg/mL and an MIC90 [2, 4] of 1 µg/mL.
